Measurements reported in the supplement of paper PMC10307832.

How the values were obtained:
Test in all cases: relative viability (nuclei count vs DMSO), 5 days (fraction); higher = more cells survive
IU1-47 + Palbociclib = compound: CC1=CC(=C(N1C2=CC=C(C=C2)Cl)C)C(=O)CN3CCCCC3 [IU1-47] + CC(=O)c1c(C)c2cnc(Nc3ccc(N4CCNCC4)cn3)nc2n(C2CCCC2)c1=O [Palbociclib] (partner 0.5 µM)
How it was run: (§1)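 The day after seeding in 1536-well plates, lung cancer cell lines were treated by pin tool with a single drug, or with a fixed anchor-drug dose together with five library-drug doses (not always all listed) in √10 steps. After 5 days, a combined fix-and-stain solution (final 0.05% Triton X-100, 1% formaldehyde, 1 ug/ml Hoechst) was added. Nuclei counted on 4× images gave relative viability as treated counts over vehicle counts, reported as the median of duplicate plates.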

FG-4592 + Pemetrexed = compound: Cc1nc(C(=O)NCC(=O)O)c(O)c2ccc(Oc3ccccc3)cc12 [FG-4592] + Nc1nc2[nH]cc(CCc3ccc(C(=O)N[C@@H](CCC(=O)O)C(=O)O)cc3)c2c(=O)[nH]1 [Pemetrexed] (partner 0.2 µM)
How it was run: as §1

FG-4592 + Pictilisib = compound: Cc1nc(C(=O)NCC(=O)O)c(O)c2ccc(Oc3ccccc3)cc12 [FG-4592] + CS(=O)(=O)N1CCN(Cc2cc3nc(-c4cccc5[nH]ncc45)nc(N4CCOCC4)c3s2)CC1 [Pictilisib] (partner 1 µM)
How it was run: as §1

IU1-47 + Alpelisib = compound: CC1=CC(=C(N1C2=CC=C(C=C2)Cl)C)C(=O)CN3CCCCC3 [IU1-47] + Cc1nc(NC(=O)N2CCC[C@H]2C(N)=O)sc1-c1ccnc(C(C)(C)C(F)(F)F)c1 [Alpelisib] (partner 2 µM)
How it was run: as §1

Cell Line	relative viability (IU1-47 + Palbociclib; first compound 0.08 µM)	relative viability (IU1-47 + Palbociclib; first compound 0.253 µM)	relative viability (IU1-47 + Palbociclib; first compound 0.8 µM)	relative viability (IU1-47 + Palbociclib; first compound 2.53 µM)	relative viability (IU1-47 + Palbociclib; first compound 8 µM)	relative viability (FG-4592 + Pemetrexed; first compound 0.08 µM)	relative viability (FG-4592 + Pemetrexed; first compound 0.253 µM)	relative viability (FG-4592 + Pemetrexed; first compound 0.8 µM)	relative viability (FG-4592 + Pemetrexed; first compound 2.53 µM)	relative viability (FG-4592 + Pemetrexed; first compound 8 µM)	relative viability (FG-4592 + Pictilisib; first compound 0.08 µM)	relative viability (FG-4592 + Pictilisib; first compound 0.253 µM)	relative viability (FG-4592 + Pictilisib; first compound 0.8 µM)	relative viability (FG-4592 + Pictilisib; first compound 2.53 µM)	relative viability (FG-4592 + Pictilisib; first compound 8 µM)	relative viability (IU1-47 + Alpelisib; first compound 0.08 µM)	relative viability (IU1-47 + Alpelisib; first compound 0.253 µM)	relative viability (IU1-47 + Alpelisib; first compound 0.8 µM)	relative viability (IU1-47 + Alpelisib; first compound 2.53 µM)	relative viability (IU1-47 + Alpelisib; first compound 8 µM)
NCI-H2342	0.564	0.569	0.487	0.527	0.519	0.682	0.767	0.77	0.8	0.738										
SK-MES-1	0.282	0.332	0.292	0.34	0.273	0.88	0.833	0.927	0.906	0.917	0.358	0.361	0.318	0.367	0.383	0.885	0.998	1.03	0.859	0.922
HCC-366	0.409	0.421	0.349	0.546	0.327	0.182	0.148	0.242	0.181	0.258	0.0934	0.104	0.23	0.151	0.113	0.479	0.424	0.524		0.231
201T	0.377	0.417	0.361	0.391	0.399	0.355	0.331	0.305	0.29	0.308	0.642	0.644	0.584	0.695	0.675	1.08	1.04	0.938		1.04
HCC-827	0.553	0.497	0.534	0.551	0.535	0.232	0.255	0.235	0.26	0.255	1.05	1.04	1.07	0.875	0.834	1.08	1.05	0.91	1.1	0.905
NCI-H647	0.38	0.416	0.416	0.419	0.42	0.165	0.14	0.211	0.161	0.15		0.395		0.452	0.53	1.18	1.21	1.19	1.07	0.383
NCI-H2023	0.464	0.45	0.421	0.47	0.344	0.228	0.198	0.244	0.232	0.217	0.203	0.202	0.143	0.205	0.196	0.6	0.531	0.511	0.627	0.519
NCI-H520	0.218	0.227	0.223	0.204	0.237	0.62	0.766	0.774	0.8	0.698	0.269	0.293	0.225	0.291	0.258	0.947	0.948	1.03	0.907	0.726
RERF-LC-KJ	1.32	1.18	1.04	1.16	1.07	0.466	0.472	0.481	0.486	0.498	0.476	0.539	0.552	0.574	0.477	0.785	0.946	0.775	0.869	0.76
A-427	0.488	0.521	0.536	0.556	0.499	0.874	0.96	0.895	0.986	0.902	0.674	0.739	0.503	0.661	0.742	1.09	1.08	1.14		1.04
NCI-H441	0.265	0.243	0.206	0.204	0.188	0.267	0.343	0.272	0.296	0.248	0.585	0.524	0.509	0.483	0.464	0.672	0.82	0.616	0.92	0.779
NCI-H1703											0.271	0.236	0.218	0.253	0.245	0.264	0.273	0.286	0.355	0.301
NCI-H1792	0.727	0.643	0.707	0.44	0.544	0.691	0.76		0.619	0.651	0.296	0.248	0.279	0.246	0.318	0.824	0.708	0.647	0.444	0.55
Calu-6											0.885	0.859	0.921	0.902	0.856	0.907	1.01	0.989	0.985	1.25
SK-LU-1	0.387	0.411	0.445	0.4	0.378	0.949	0.842	1.05	1.06	1.05	0.436	0.418	0.582	0.55	0.428	0.8	1.22	0.943	1.31	0.807
